# Data taken from ChEMBL document CHEMBL3871290, “3-Cyano-6-(5-methyl-3-pyrazoloamino) pyridines (Part 2): A dual inhibitor of Aurora kinase and tubulin polymerization” (Bioorg Med Chem Lett, 2016).
# How the values were obtained:
# [1] = molecular target: Cytochrome P450 3A4 (Homo sapiens, UniProt P08684); experiment: Inhibition of CYP3A4 (unknown origin); assay type: ADME
# [2] = molecular target: Cytochrome P450 2D6 (Homo sapiens, UniProt P10635); experiment: (§1) Inhibition of CYP2D6 (unknown origin); assay type: ADME
# [3] = molecular target: T1, Cytochrome P450 1A2 (Homo sapiens, UniProt P05177); experiment: Inhibition of CYP1A2 (unknown origin); assay type: ADME
# T1 sequence (P05177 whole entry): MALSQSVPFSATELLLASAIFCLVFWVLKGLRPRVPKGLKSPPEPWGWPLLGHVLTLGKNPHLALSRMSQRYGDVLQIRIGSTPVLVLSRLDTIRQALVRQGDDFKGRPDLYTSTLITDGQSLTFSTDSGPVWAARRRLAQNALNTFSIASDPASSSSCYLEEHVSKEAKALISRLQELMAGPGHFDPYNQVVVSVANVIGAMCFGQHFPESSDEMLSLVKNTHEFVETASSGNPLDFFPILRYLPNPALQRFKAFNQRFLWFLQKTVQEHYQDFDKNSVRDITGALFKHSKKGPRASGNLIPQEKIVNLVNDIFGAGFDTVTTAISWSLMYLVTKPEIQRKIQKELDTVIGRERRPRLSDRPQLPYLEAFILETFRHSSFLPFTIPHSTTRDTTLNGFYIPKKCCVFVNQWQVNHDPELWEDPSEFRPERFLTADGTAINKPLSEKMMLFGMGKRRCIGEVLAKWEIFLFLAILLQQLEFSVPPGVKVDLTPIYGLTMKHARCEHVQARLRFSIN
# [4] = Cytotoxicity against human HCT116 cells assessed as cell growth inhibition; assay type: functional; settings: HCT-116
# [5] = molecular target: T2, Aurora kinase A (Homo sapiens, UniProt O14965); experiment: Inhibition of recombinant Aurora A kinase derived from human Hela cells using kemptide as substrate in presence of [c-32P]ATP
# T2 sequence (O14965 whole entry): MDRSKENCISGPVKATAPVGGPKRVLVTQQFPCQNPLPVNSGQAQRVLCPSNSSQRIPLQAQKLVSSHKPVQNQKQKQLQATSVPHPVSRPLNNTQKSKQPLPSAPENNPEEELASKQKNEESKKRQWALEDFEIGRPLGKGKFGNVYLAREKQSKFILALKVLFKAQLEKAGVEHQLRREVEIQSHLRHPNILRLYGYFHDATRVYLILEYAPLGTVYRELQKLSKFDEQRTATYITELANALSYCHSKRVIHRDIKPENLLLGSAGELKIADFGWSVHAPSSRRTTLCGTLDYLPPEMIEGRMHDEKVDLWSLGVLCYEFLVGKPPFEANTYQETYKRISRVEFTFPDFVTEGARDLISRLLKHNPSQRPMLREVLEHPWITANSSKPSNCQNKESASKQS
# [6] = molecular target: Cytochrome P450 2C19 (Homo sapiens, UniProt P33261); experiment: Inhibition of CYP2C19 (unknown origin); assay type: ADME
# [7] = molecular target: Cytochrome P450 2C9 (Homo sapiens, UniProt P11712); experiment: Inhibition of CYP2C9 (unknown origin); assay type: ADME
# [8] = molecular target: Aurora kinase B (Homo sapiens, UniProt Q96GD4); experiment: Inhibition of Aurora 1 kinase (unknown origin)
# [9] = molecular target: Proto-oncogene tyrosine-protein kinase Src (Homo sapiens, UniProt P12931); experiment: Inhibition of cSRC (unknown origin)
# [10] = molecular target: Fibroblast growth factor receptor 1 (Homo sapiens, UniProt P11362); experiment: Inhibition of FGFR1 (unknown origin)
# [11] = molecular target: Tyrosine-protein kinase Fyn (Homo sapiens, UniProt P06241); experiment: Inhibition of FYN (unknown origin)
# [12] = molecular target: Vascular endothelial growth factor receptor 2 (Homo sapiens, UniProt P35968); experiment: Inhibition of KDR (unknown origin)
# [13] = molecular target: Tyrosine-protein kinase Lyn (Homo sapiens, UniProt P07948); experiment: Inhibition of LYN (unknown origin)
# [14] = molecular target: Tyrosine-protein kinase Yes (Homo sapiens, UniProt P07947); experiment: Inhibition of YES (unknown origin)
# [15] = Antitumor activity against human HCT116 cells xenografted subcutaneously in mouse assessed as tumor growth inhibition at 30 mg/kg, po qd after 14 days; assay type: functional; settings: HCT-116, 336 h, read-out: TGI
# [16] = AUC in rat at 30 mg/kg, po; assay type: ADME, organism-based; settings: in vivo
# [17] = Tmax in rat at 30 mg/kg, po; assay type: ADME, organism-based; settings: in vivo
# [18] = Cmax in rat at 30 mg/kg, po; assay type: ADME, organism-based; parameters: dose 30 mg/kg, route oral; settings: in vivo
# [19] = Antitumor activity against human PC3 cells xenografted subcutaneously in mouse assessed as tumor growth inhibition at 30 mg/kg, po qd for 14 days; assay type: functional; settings: PC-3, 336 h, read-out: TGI
# [20] = Antitumor activity against mouse CT26 cells allografted subcutaneously in mouse assessed as tumor growth inhibition at 30 mg/kg, po qd for 14 days; assay type: functional; settings: CT26, 336 h, read-out: TGI
# [21] = Antitumor activity against human HCT116 cells xenografted subcutaneously in mouse assessed as tumor growth inhibition at 40 mg/kg, po qd administered on day 1, 5, 9, 13, 16 relative to control; assay type: functional; settings: HCT-116, read-out: TGI
# [22] = Antitumor activity against human HCT116 cells xenografted subcutaneously in mouse assessed as tumor growth inhibition at 20 mg/kg, po qd administered on day 1, 5, 9, 13, 16 relative to control; assay type: functional; settings: HCT-116, read-out: TGI
# [23] = test system: Mus musculus; experiment: Toxicity in mouse allografted subcutaneously with mouse CT26 cells assessed as mortality at 30 mg/kg, ip qd for 14 days; assay type: organism-based; settings: in vivo, 336 h
# [24] = Antitumor activity against mouse CT26 cells allografted subcutaneously in mouse assessed as tumor growth inhibition at 25 mg/kg, ip qd for 14 days; assay type: functional; settings: CT26, 336 h, read-out: TGI
# [25] = molecular target: CYP2D6 (Homo sapiens, UniProt P10635); experiment: as §1; assay type: ADME
# CYP2D6, sequence (P10635 whole entry): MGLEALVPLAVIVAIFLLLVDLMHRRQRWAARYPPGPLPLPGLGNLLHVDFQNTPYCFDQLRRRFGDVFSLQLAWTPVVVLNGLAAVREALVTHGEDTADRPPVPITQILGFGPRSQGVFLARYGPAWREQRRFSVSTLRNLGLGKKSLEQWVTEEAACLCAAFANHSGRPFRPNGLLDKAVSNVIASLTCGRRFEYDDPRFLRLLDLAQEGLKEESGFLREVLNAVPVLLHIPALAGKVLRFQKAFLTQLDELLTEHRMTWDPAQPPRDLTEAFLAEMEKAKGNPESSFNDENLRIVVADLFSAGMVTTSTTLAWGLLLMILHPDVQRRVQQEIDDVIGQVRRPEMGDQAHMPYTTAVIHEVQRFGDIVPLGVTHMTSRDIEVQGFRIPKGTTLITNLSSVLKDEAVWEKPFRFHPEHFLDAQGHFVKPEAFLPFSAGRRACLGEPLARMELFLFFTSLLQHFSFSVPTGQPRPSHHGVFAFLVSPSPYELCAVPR
# Cytochrome P450 2C9, sequence (P11712 whole entry): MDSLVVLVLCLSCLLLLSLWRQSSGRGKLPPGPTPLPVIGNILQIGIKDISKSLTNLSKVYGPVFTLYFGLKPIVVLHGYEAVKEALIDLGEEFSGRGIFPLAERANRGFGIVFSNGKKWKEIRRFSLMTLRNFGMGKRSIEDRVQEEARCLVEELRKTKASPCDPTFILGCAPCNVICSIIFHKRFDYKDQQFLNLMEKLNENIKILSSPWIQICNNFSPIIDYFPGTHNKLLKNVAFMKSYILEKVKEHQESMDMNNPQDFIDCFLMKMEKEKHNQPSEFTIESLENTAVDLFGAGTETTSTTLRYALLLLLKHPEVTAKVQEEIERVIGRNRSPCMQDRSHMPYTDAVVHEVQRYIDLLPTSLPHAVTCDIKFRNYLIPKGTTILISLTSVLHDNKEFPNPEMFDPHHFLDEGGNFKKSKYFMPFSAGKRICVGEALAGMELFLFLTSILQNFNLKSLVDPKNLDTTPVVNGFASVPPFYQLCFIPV
# Cytochrome P450 3A4, sequence (P08684 whole entry): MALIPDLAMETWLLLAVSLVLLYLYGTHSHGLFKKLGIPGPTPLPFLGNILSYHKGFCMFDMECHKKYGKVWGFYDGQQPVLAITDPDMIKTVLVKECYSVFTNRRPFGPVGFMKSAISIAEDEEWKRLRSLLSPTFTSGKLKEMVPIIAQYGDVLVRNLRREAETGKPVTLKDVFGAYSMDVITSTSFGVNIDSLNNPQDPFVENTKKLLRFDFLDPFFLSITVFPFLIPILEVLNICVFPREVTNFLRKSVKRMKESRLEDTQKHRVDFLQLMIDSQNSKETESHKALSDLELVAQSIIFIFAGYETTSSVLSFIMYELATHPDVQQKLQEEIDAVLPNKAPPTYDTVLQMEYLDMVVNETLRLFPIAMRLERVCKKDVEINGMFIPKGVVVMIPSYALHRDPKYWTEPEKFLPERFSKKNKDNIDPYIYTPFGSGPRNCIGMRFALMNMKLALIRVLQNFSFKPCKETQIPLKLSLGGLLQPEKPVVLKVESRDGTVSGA
# Cytochrome P450 2C19, sequence (P33261 whole entry): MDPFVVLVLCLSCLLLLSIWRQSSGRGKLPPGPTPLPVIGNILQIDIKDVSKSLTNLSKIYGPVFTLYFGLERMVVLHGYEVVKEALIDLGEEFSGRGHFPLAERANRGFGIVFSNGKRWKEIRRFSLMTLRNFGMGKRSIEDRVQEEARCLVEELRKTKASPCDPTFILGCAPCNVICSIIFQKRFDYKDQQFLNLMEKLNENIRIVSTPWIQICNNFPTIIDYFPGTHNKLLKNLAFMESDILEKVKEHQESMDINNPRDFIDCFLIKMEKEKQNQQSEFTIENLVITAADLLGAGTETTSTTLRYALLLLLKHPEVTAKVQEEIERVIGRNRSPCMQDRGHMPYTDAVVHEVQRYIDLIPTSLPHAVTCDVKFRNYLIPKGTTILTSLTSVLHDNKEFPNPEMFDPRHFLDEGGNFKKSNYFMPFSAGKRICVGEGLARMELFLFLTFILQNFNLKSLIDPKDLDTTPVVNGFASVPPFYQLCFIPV
# Cytochrome P450 2D6, sequence (P10635 whole entry): as the sequence (P10635 whole entry) above
# Proto-oncogene tyrosine-protein kinase Src, sequence (P12931 2-536 limits assumed): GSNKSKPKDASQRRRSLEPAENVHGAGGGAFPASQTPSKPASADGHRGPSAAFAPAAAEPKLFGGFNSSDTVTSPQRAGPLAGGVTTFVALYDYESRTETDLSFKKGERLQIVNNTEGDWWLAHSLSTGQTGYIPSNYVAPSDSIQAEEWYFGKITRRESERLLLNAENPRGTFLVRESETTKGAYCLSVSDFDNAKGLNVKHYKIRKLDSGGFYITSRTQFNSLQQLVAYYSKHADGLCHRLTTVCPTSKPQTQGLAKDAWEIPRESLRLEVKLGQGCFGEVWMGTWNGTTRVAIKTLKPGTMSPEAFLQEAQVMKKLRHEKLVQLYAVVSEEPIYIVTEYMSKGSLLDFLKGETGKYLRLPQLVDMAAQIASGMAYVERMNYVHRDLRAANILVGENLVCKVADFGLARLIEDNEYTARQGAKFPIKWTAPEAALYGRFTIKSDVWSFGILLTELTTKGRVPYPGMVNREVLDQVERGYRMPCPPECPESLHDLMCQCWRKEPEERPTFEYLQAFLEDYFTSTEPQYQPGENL
# Tyrosine-protein kinase Lyn, sequence (P07948 whole entry): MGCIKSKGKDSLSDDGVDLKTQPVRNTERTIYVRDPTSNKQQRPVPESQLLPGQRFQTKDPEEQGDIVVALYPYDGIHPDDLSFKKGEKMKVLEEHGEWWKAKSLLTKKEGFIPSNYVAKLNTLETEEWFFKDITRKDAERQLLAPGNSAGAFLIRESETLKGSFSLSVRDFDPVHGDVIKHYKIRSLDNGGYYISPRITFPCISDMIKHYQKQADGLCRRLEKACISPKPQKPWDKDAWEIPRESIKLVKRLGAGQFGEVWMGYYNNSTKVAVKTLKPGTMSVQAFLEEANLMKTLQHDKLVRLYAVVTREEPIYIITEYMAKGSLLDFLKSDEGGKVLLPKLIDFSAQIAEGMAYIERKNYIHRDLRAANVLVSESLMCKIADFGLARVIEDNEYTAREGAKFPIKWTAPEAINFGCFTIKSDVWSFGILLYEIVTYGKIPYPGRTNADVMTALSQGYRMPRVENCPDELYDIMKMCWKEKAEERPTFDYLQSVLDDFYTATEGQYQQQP
# Vascular endothelial growth factor receptor 2, sequence (P35968 whole entry): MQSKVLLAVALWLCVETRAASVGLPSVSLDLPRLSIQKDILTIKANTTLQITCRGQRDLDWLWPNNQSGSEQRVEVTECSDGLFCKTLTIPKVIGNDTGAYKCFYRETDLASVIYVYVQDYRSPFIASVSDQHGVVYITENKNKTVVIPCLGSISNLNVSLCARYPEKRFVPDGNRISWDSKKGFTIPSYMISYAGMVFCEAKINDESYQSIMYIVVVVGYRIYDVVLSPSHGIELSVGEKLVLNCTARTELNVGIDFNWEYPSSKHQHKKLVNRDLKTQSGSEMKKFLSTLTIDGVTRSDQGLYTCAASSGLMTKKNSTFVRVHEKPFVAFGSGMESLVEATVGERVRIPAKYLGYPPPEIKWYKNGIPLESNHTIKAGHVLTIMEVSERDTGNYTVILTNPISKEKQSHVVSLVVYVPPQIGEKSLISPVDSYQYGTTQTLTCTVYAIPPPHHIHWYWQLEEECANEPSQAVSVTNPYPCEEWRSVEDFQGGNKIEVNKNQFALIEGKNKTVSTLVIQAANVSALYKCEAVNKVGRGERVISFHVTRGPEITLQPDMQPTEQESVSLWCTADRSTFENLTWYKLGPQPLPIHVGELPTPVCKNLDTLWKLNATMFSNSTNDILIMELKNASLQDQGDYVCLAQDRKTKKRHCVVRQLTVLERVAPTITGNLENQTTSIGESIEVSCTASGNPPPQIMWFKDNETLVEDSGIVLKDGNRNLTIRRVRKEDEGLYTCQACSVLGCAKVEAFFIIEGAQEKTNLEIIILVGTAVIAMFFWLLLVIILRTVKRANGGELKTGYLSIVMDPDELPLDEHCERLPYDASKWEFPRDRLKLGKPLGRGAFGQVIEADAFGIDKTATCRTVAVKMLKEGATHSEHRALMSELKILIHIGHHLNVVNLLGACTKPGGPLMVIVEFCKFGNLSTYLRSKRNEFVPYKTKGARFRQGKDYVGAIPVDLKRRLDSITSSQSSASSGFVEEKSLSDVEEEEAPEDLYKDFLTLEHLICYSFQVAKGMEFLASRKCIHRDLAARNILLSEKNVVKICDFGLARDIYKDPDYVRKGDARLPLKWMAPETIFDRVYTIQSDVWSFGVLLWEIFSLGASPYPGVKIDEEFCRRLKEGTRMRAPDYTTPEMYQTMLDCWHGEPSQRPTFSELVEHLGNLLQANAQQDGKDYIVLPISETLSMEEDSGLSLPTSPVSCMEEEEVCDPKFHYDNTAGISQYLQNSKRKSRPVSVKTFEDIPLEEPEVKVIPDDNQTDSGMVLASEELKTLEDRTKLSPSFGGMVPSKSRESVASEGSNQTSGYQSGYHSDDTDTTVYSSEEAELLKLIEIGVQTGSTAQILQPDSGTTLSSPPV
# Tyrosine-protein kinase Fyn, sequence (P06241 whole entry): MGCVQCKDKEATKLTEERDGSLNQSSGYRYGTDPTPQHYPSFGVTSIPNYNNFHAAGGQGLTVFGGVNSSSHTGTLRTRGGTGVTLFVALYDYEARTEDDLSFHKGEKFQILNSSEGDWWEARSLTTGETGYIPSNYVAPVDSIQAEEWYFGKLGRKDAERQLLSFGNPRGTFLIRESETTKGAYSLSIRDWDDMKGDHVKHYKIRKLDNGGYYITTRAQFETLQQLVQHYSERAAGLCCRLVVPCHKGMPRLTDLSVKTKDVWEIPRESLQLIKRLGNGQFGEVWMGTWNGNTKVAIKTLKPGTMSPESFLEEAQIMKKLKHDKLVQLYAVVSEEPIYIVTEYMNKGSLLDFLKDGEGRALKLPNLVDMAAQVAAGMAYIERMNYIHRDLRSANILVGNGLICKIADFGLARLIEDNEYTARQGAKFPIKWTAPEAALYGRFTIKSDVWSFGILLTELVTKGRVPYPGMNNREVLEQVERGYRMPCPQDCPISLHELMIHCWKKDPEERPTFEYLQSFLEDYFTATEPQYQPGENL
SMILES,IC50 [1] [nM],IC50 [2] [nM],IC50 [3] [nM],Ki [5] [nM],IC50 [6] [nM],IC50 [7] [nM],GI50 [4] [nM],other results
Cc1cc(Nc2cc(C)c(C#N)c(NCCOc3cccnc3C)n2)n[nH]1,1800,> 50000,5500,–,900,2400,4,–
CCc1ccc(OCCNc2nc(Nc3cc(C)[nH]n3)cc(C)c2C#N)cn1,1600,46000,1400,6,800,1400,66,–
CC(=O)O[C@H]1C(=O)[C@@]2(C)[C@H]([C@H](OC(=O)c3ccccc3)[C@]3(O)C[C@H](OC(=O)[C@H](O)[C@@H](NC(=O)c4ccccc4)c4ccccc4)C(C)=C1C3(C)C)[C@]1(OC(C)=O)CO[C@@H]1C[C@@H]2O [PACLITAXEL],–,–,–,–,–,–,–,Activity [23]: Toxic; inhibition in vivo at 25 mg/kg [24]: 24.8%
Cc1cc(Nc2cc(C)c(C#N)c(NCCOc3ccccc3F)n2)n[nH]1,1600,7700,< 400,< 1,–,–,26,–
Cc1cc(Nc2cc(C)c(C#N)c(N[C@@H](C)CCCC(C)(C)O)n2)n[nH]1,–,–,55000,< 1,< 400,1700,52,IC50 [25]: < 50000 nM
Cc1ccc(OCCNc2nc(Nc3cc(C)[nH]n3)cc(C)c2C#N)c(C)n1,1700,> 50000,> 50000,–,1700,3500,37,–
Cc1cc(Nc2cc(C)c(C#N)c(NCCOc3ccccc3Cl)n2)n[nH]1,1200,6500,500,–,< 400,< 200,9,–

# The next lines start with results.
IC50 [1] [nM],IC50 [2] [nM],IC50 [3] [nM],Ki [5] [nM],IC50 [6] [nM],IC50 [7] [nM],SMILES,GI50 [4] [nM],other results
7200,29000,< 400,–,–,–,Cc1cc(Nc2cc(C)c(C#N)c(NCCOc3ccccn3)n2)n[nH]1,67,–
1400,7200,< 400,2,–,–,Cc1cc(Nc2cc(C)c(C#N)c(NCCOc3ccccc3)n2)n[nH]1,11,–
< 400,9900,700,–,–,–,Cc1cc(Nc2cc(C)c(C#N)c(NCCOc3cccnc3)n2)n[nH]1,2,–
4500,> 50000,2000,4,4500,4900,Cc1ccc(OCCNc2nc(Nc3cc(C)[nH]n3)cc(C)c2C#N)cn1,1,Ki [8]: 10 nM; Ki [9]: 480 nM; Ki [10]: 80 nM; Ki [11]: 80 nM; Ki [12]: 590 nM; Ki [13]: 490 nM; Ki [14]: 79 nM; inhibition in vivo at 30 mg/kg [15]: 81.9%; AUC [16]: 14.6 µg/mL; Tmax [17]: 15 min; Cmax [18]: 19600 ng/mL; inhibition in vivo at 30 mg/kg [19]: 85%; inhibition in vivo at 30 mg/kg [20]: 47.8%; inhibition in vivo at 40 mg/kg [21]: 71%; inhibition in vivo at 20 mg/kg [22]: 44%
< 400,2000,< 400,29,–,–,Cc1cc(Nc2cc(C)c(C#N)c(NCCOc3ccncc3)n2)n[nH]1,120,–
